Reference: ChEMBL document CHEMBL4390652, “Design, biological evaluation and X-ray crystallography of nanomolar multifunctional ligands targeting simultaneously acetylcholinesterase and glycogen synthase kinase-3” (Eur J Med Chem, 2019)

Key:
[1] = biological target: STE20-like serine/threonine-protein kinase (Homo sapiens) (UniProt Q9H2G2); assay: Binding affinity to wild-type human partial length SLK (S14 to A307 residues) expressed in bacterial expression system assessed as residual binding level at 10 uM by Kinomescan method relative to control
[2] = biological target: SRSF protein kinase 2 (Homo sapiens) (UniProt P78362); assay: Binding affinity to wild-type human full length SRPK2 (M1 to S686 residues) expressed in bacterial expression system assessed as residual binding level at 10 uM by Kinomescan method relative to control
[3] = biological target: Mitogen-activated protein kinase kinase kinase kinase 3 (Homo sapiens) (UniProt Q8IVH8); assay: Binding affinity to wild-type human partial length MAP4K3 (M1 to D301 residues) expressed in bacterial expression system assessed as residual binding level at 10 uM by Kinomescan method relative to control
[4] = biological target: Mitogen-activated protein kinase 10 (Homo sapiens) (UniProt P53779); assay: Binding affinity to wild-type human partial length JNK3 (V28 to Q422 residues) expressed in mammalian expression system assessed as residual binding level at 10 uM by Kinomescan method relative to control
[5] = biological target: Mitogen-activated protein kinase 15 (Homo sapiens) (UniProt Q8TD08); assay: Binding affinity to wild-type human partial length ERK8 (M1 to P437 residues) expressed in bacterial expression system assessed as residual binding level at 10 uM by Kinomescan method relative to control
[6] = biological target: Dual specificity protein kinase CLK2 (Homo sapiens) (UniProt P49760); assay: Binding affinity to wild-type human partial length CLK2 (D144 to R498 residues) expressed in bacterial expression system assessed as residual binding level at 10 uM by Kinomescan method relative to control
[7] = biological target: ALK tyrosine kinase receptor (Homo sapiens) (UniProt Q9UM73); assay: Binding affinity to wild-type human partial length ALK (I1088 to E1409 residues) expressed in mammalian expression system assessed as residual binding level at 10 uM by Kinomescan method relative to control
[8] = biological target: Cyclin-dependent kinase 4/cyclin D1 (Homo sapiens) (UniProt P11802+P24385); assay: Binding affinity to wild-type human full length CDK4/cyclinD1 (M1 to E303 residues) expressed in mammalian expression system assessed as residual binding level at 10 uM by Kinomescan method relative to control
[9] = biological target: Cyclin-dependent kinase 15 (Homo sapiens) (UniProt Q96Q40); assay: Binding affinity to wild-type human full length PFTAIRE2 (M1 to W384 residues) expressed in bacterial expression system assessed as residual binding level at 10 uM by Kinomescan method relative to control
[10] = test system: Proto-oncogene tyrosine-protein kinase receptor Ret (Homo sapiens), P07949 [V804L]; assay: Binding affinity to human partial length RET V804L mutant (E713 to D1014 residues) expressed in bacterial expression system assessed as residual binding level at 10 uM by Kinomescan method relative to control
[11] = biological target: Focal adhesion kinase 1 (Homo sapiens) (UniProt Q05397); assay: Binding affinity to wild-type human partial length FAK (D402 to R696 residues) expressed in bacterial expression system assessed as residual binding level at 10 uM by Kinomescan method relative to control
[12] = biological target: Rho-associated protein kinase 2 (Homo sapiens) (UniProt O75116); assay: Binding affinity to wild-type human partial length ROCK2 (M1 to T431 residues) expressed in mammalian expression system assessed as residual binding level at 10 uM by Kinomescan method relative to control
[13] = test system: Serine/threonine-protein kinase B-raf (Homo sapiens), P15056 [V600E]; assay: Binding affinity to human partial length BRAF V600E mutant (S429 to E741 residues) expressed in mammalian expression system assessed as residual binding level at 10 uM by Kinomescan method relative to control
[14] = biological target: Activin receptor type-2B (Homo sapiens) (UniProt Q13705); assay: Binding affinity to wild-type human ACVR2B (H169 to D504 residues) expressed in bacterial expression system assessed as residual binding level at 10 uM by Kinomescan method relative to control
[15] = biological target: Aurora kinase C (Homo sapiens) (UniProt Q9UQB9); assay: Binding affinity to wild-type human full length AURKC (M1 to S275 residues) expressed in bacterial expression system assessed as residual binding level at 10 uM by Kinomescan method relative to control
[16] = biological target: Calcium-dependent protein kinase 1 (Plasmodium falciparum) (UniProt P62344); assay: Binding affinity to wild-type Plasmodium falciparum full length CDPK1 (M1 to S524 residues) expressed in mammalian expression system assessed as residual binding level at 10 uM by Kinomescan method relative to control
[17] = biological target: Serine/threonine-protein kinase MARK2 (Homo sapiens) (UniProt Q7KZI7); assay: Binding affinity to wild-type human partial length MARK2 (M1 to R450 residues) expressed in bacterial expression system assessed as residual binding level at 10 uM by Kinomescan method relative to control
[18] = biological target: Macrophage colony-stimulating factor 1 receptor (Homo sapiens) (UniProt P07333); assay: Binding affinity to wild-type human partial length autoinhibited CSF1R (Y538 to S939 residues) expressed in mammalian expression system assessed as residual binding level at 10 uM by Kinomescan method relative to control
[19] = biological target: Wee1-like protein kinase (Homo sapiens) (UniProt P30291); assay: Binding affinity to wild-type human partial length WEE1 (M291 to K575 residues) expressed in bacterial expression system assessed as residual binding level at 10 uM by Kinomescan method relative to control
[20] = biological target: Homeodomain-interacting protein kinase 1 (Homo sapiens) (UniProt Q86Z02); assay: Binding affinity to wild-type human partial length HIPK1 (M146 to I555 residues) expressed in mammalian expression system assessed as residual binding level at 10 uM by Kinomescan method relative to control
[21] = biological target: Casein kinase I isoform gamma-2 (Homo sapiens) (UniProt P78368); assay: Binding affinity to wild-type human full length CSNK1G2 (M1 to K415 residues) expressed in bacterial expression system assessed as residual binding level at 10 uM by Kinomescan method relative to control
[22] = biological target: Receptor-interacting serine/threonine-protein kinase 4 (Homo sapiens) (UniProt P57078); assay: Binding affinity to wild-type human partial length RIPK4 (M1 to V303 residues) expressed in mammalian expression system assessed as residual binding level at 10 uM by Kinomescan method relative to control
[23] = biological target: Serine/threonine-protein kinase ULK2 (Homo sapiens) (UniProt Q8IYT8); assay: Binding affinity to wild-type human partial length ULK2 (M1 to S301 residues) expressed in mammalian expression system assessed as residual binding level at 10 uM by Kinomescan method relative to control
[24] = biological target: NT-3 growth factor receptor (Homo sapiens) (UniProt Q16288); assay: Binding affinity to wild-type human partial length TRKC (Q531 to G825 residues) expressed in mammalian expression system assessed as residual binding level at 10 uM by Kinomescan method relative to control

Sequence of Focal adhesion kinase 1 (Homo sapiens) (Q05397 2-1052 limits assumed): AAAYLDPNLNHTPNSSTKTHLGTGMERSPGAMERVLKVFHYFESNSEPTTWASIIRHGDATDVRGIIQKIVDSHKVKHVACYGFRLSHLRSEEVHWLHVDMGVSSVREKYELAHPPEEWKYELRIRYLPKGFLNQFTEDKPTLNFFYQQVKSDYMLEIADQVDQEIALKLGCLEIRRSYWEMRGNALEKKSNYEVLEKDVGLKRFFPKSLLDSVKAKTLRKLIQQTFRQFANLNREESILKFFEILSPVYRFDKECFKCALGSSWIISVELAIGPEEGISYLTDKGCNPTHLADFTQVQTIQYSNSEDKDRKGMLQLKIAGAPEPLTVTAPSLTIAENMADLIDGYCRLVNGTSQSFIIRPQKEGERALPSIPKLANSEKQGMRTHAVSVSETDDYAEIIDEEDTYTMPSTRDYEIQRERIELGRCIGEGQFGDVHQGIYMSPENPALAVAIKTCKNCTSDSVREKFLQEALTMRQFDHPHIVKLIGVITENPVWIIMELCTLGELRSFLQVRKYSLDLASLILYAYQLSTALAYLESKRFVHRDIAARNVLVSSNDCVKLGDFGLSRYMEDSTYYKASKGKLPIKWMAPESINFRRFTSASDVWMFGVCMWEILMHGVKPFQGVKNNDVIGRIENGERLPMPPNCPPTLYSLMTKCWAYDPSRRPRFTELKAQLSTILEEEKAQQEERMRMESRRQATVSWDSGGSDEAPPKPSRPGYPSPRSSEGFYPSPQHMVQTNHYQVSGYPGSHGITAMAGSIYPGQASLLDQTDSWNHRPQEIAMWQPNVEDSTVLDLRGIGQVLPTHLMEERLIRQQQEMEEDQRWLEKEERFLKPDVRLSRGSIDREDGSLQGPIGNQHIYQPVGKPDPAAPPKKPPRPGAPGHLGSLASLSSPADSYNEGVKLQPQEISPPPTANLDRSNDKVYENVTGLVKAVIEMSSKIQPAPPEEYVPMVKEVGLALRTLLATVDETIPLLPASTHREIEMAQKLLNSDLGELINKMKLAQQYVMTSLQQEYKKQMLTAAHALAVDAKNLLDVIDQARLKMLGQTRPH
Sequence of Mitogen-activated protein kinase kinase kinase kinase 3 (Homo sapiens) (Q8IVH8 whole entry, the tested form may be a part): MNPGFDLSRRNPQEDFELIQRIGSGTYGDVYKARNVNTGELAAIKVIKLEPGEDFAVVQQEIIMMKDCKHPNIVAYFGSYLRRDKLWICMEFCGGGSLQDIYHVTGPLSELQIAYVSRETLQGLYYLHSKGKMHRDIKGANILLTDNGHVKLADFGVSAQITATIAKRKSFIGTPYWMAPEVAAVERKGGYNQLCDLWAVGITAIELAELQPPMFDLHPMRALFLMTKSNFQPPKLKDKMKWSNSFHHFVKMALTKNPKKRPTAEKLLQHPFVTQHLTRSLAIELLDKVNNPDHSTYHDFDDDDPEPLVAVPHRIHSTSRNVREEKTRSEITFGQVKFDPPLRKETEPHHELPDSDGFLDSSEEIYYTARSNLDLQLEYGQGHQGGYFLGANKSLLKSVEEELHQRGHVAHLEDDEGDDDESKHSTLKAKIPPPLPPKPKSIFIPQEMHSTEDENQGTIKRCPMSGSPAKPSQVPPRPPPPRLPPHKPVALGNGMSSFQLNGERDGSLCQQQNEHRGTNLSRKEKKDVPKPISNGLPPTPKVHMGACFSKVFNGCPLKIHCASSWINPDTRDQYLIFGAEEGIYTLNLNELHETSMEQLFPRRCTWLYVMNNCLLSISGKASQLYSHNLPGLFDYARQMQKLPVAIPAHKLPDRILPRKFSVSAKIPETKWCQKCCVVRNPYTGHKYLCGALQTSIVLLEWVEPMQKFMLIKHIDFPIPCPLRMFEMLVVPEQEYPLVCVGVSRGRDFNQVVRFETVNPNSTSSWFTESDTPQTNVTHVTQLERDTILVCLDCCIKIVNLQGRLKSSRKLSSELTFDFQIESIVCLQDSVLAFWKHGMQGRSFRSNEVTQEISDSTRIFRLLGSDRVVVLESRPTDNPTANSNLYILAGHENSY
Sequence of Macrophage colony-stimulating factor 1 receptor (Homo sapiens) (P07333 whole entry, the tested form may be a part): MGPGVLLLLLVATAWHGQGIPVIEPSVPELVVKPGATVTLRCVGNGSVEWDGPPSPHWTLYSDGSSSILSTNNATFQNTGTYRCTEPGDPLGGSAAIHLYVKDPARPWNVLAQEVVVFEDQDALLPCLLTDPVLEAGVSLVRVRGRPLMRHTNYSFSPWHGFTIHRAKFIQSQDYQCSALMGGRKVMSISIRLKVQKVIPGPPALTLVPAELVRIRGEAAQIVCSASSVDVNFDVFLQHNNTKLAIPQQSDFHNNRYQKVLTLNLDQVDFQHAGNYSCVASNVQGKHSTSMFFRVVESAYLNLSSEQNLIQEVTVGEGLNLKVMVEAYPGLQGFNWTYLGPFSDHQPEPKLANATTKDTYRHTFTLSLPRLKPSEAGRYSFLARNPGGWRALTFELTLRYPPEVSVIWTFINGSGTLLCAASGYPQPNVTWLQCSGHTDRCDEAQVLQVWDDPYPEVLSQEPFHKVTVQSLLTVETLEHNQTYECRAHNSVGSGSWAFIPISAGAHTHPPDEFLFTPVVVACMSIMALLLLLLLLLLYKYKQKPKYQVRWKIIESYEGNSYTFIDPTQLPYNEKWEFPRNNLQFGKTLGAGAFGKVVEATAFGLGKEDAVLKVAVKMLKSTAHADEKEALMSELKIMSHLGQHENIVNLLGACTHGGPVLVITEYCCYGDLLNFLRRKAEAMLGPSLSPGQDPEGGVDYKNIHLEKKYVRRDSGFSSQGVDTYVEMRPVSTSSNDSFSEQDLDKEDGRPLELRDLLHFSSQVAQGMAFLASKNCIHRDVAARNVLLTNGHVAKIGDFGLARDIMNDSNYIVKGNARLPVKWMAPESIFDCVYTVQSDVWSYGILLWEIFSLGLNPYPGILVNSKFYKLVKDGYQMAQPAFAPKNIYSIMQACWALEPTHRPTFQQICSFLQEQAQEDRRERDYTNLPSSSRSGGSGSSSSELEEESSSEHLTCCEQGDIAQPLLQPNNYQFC
Sequence of Proto-oncogene tyrosine-protein kinase receptor Ret (Homo sapiens), P07949 [V804L] (P07949 whole entry V804L, the tested form may be a part): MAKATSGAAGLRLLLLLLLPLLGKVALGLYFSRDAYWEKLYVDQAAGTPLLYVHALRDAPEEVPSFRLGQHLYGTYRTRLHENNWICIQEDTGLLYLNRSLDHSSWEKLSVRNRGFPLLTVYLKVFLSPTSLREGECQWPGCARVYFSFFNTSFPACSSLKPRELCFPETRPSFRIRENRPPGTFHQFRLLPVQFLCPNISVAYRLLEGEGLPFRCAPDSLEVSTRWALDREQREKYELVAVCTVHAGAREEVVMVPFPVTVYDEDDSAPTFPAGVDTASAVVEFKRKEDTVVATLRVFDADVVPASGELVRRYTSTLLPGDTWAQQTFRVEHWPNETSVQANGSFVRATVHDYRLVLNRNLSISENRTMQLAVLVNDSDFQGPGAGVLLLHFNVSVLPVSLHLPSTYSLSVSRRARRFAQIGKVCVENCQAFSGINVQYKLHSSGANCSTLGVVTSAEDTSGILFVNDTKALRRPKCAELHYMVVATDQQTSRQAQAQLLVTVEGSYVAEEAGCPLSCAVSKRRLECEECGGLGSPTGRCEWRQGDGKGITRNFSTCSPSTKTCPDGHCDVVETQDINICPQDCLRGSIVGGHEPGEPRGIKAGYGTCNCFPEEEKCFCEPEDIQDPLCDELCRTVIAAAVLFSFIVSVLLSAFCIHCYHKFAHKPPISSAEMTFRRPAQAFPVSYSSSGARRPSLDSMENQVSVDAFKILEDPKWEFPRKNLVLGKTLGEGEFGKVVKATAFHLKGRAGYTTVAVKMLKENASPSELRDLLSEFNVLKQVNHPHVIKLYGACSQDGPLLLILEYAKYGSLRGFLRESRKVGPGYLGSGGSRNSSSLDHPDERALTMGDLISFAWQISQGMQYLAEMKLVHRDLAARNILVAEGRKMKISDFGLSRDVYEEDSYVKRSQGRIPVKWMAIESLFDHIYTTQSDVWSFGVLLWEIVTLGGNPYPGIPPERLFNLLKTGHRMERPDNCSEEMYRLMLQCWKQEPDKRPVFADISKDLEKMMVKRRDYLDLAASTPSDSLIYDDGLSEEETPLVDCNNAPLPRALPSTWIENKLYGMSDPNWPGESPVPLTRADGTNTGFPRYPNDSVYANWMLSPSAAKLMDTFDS
Sequence of Receptor-interacting serine/threonine-protein kinase 4 (Homo sapiens) (P57078 whole entry, the tested form may be a part): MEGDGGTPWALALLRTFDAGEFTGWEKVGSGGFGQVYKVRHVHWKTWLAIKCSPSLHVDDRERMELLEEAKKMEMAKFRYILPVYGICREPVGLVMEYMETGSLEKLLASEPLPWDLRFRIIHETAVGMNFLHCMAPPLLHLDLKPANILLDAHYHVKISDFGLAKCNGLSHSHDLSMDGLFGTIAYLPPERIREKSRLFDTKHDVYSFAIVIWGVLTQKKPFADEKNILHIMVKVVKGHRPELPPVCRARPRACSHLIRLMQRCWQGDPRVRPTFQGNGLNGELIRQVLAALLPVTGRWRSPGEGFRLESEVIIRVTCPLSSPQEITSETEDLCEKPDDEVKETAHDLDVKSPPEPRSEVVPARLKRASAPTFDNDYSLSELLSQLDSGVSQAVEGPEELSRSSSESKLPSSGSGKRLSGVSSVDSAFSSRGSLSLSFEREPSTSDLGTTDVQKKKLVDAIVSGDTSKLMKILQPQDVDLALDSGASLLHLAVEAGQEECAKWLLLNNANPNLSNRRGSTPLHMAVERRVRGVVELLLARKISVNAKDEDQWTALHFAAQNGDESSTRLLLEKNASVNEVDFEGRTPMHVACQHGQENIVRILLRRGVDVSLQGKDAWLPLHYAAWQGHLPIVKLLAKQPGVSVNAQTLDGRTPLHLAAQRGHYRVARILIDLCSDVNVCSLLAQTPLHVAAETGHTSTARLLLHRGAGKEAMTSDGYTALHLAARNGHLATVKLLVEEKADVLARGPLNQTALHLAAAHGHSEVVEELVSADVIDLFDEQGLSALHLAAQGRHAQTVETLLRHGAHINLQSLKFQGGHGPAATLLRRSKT

SMILES: O=C(Nc1cc(-c2cn(CCNc3c4c(nc5ccccc35)CCCC4)nn2)ccn1)Nc1cccc2c1C1CCCCN1C2=O (racemic)
- Activity [1]: 30%
- Activity [2]: 35%
- Activity [3]: 21%
- Activity [4]: 1.3%
- Activity [5]: 0.05%
- Activity [6]: 24%
- Activity [7]: 100%
- Activity [8]: 1.1%
- Activity [9]: 11%
- Activity [10]: 16%
- Activity [11]: 87%
- Activity [12]: 26%
- Activity [13]: 39%
- Activity [14]: 100%
- Activity [15]: 13%
- Activity [16]: 4%
- Activity [17]: 46%
- Activity [18]: 0.54%
- Activity [19]: 100%
- Activity [20]: 43%
- Activity [21]: 68%
- Activity [22]: 30%
- Activity [23]: 16%
- Activity [24]: 14%
